Source: ChEMBL document CHEMBL1139549, “Two prodrugs of potent and selective GluR5 kainate receptor antagonists actives in three animal models of pain” (J Med Chem, 2005)

Legend:
[1] = Inhibition of [3H]KA binding to human iontropic glutamate receptors 6 and KA-2
Glutamate receptor 2 = Glutamate receptor 2 (Homo sapiens, UniProt P42262); test: biochemical
Description: Inhibition of [3H]-AMPA binding to human GluR2 receptors expressed in HEK 293 cells

[2] = Inhibition of [3H]KA binding to human iontropic glutamate receptors 5 and 6
[3] = target: Glutamate receptor ionotropic, kainate 1 (Homo sapiens, UniProt P39086)
Description: Inhibition of [3H]-KA binding to iontropic glutamate receptor 5

[4] = target: Glutamate receptor ionotropic, kainate 2 (Homo sapiens, UniProt Q13002); test: Inhibition of [3H]KA binding to iontropic glutamate receptor 6
[5] = Inhibition of [3H]KA binding to human iontropic glutamate receptors 5 and KA-2

Glutamate receptor ionotropic, kainate 1, sequence (P39086 whole entry): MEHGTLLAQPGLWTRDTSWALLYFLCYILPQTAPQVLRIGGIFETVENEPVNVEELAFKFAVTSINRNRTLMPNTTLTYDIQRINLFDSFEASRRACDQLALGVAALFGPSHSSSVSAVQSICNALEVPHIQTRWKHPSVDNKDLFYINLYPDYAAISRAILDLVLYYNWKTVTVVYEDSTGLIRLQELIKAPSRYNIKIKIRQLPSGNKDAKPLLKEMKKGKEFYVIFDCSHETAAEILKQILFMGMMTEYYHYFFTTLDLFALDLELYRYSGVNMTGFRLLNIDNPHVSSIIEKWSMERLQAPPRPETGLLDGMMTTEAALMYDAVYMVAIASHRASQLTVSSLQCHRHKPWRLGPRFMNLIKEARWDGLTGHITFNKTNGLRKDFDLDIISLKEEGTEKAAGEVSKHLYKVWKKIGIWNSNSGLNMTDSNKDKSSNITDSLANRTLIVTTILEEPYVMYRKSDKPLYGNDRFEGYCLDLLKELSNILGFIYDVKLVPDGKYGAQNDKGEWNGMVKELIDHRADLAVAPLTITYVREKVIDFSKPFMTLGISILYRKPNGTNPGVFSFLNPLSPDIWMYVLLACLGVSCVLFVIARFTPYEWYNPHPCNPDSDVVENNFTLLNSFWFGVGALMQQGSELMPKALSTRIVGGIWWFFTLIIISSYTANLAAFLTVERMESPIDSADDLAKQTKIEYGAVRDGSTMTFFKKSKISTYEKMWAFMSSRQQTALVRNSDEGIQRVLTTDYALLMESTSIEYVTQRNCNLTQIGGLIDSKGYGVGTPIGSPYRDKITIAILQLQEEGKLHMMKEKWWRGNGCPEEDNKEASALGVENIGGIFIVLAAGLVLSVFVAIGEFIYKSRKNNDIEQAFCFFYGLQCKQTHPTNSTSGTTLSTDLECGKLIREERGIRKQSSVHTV
Glutamate receptor ionotropic, kainate 2, sequence (Q13002 whole entry): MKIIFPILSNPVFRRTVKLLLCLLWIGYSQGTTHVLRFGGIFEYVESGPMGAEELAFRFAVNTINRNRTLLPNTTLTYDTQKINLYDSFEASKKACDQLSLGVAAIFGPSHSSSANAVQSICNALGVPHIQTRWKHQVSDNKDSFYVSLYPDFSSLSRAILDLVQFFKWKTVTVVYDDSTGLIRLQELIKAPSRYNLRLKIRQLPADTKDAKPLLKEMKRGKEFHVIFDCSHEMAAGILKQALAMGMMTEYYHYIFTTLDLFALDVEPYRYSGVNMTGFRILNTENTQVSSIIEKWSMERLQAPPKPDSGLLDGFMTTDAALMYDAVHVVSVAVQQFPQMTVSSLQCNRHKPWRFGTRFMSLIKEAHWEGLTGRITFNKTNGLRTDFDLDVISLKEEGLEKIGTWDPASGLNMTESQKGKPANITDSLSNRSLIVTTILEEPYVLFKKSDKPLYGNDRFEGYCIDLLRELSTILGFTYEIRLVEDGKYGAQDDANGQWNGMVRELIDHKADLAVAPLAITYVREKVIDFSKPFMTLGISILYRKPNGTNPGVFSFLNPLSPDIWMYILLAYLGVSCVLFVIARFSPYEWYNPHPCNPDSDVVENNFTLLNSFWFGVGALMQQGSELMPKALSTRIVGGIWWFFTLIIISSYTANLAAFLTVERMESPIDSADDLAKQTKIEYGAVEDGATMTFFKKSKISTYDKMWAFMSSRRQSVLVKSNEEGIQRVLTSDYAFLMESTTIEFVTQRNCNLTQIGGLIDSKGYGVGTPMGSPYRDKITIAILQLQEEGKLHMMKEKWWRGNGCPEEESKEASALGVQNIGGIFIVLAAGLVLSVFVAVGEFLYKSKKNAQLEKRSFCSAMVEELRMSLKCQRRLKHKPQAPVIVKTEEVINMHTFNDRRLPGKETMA
Glutamate receptor 2, sequence (P42262 whole entry): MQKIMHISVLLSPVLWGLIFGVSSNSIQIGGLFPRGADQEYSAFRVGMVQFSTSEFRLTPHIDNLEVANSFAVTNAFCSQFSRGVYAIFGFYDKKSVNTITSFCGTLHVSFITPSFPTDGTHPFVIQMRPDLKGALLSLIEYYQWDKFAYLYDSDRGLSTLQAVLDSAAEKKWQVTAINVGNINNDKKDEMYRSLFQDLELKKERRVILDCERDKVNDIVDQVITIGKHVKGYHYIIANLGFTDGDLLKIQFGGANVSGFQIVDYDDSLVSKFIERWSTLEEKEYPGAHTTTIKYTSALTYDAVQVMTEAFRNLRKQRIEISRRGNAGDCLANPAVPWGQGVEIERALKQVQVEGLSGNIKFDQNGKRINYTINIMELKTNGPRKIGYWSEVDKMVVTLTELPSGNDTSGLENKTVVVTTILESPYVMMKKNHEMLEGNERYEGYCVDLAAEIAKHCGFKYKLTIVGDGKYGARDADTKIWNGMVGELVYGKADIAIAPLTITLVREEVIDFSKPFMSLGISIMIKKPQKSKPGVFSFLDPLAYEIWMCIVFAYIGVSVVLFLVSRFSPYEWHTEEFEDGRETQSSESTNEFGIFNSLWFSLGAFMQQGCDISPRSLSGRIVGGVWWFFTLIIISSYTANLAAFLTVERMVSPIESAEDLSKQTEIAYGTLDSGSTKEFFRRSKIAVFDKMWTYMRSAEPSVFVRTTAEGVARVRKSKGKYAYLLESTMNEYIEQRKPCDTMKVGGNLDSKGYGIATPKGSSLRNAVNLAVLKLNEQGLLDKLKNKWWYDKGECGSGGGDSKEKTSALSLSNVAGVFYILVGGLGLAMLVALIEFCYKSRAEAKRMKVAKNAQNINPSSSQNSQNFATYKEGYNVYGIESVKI

Structure (SMILES) | Ki [1] [µM] | Ki (Glutamate receptor 2) [µM] | Ki [2] [µM] | Ki [3] [µM] | Ki [4] [µM] | Ki [5] [µM]
CCC(CC)COC(=O)[C@@H]1C[C@H]2C[C@@H](Nc3ccccc3-c3nn[nH]n3)CC[C@H]2CN1 | > 100 | > 100 | 13.7 | 31.8 | > 100 | > 100
CC(C)COC(=O)[C@@H]1C[C@H]2C[C@@H](Oc3ccccc3-c3nn[nH]n3)CC[C@H]2CN1 | > 100 | > 100 | 5.98 | 7.37 | > 100 | 60.9
O=C(O)[C@@H]1C[C@H]2C[C@@H](Oc3ccccc3-c3nn[nH]n3)CC[C@H]2CN1 | > 100 | 8.26 | 1 | 1.69 | > 100 | 7.89
O=C(O)[C@@H]1C[C@H]2C[C@@H](Nc3ccccc3-c3nn[nH]n3)CC[C@H]2CN1 | > 100 | 5.51 | 1.37 | 1.55 | > 100 | 9.86
O=C(O)c1ccc(C[C@H]2CC[C@H]3CN[C@H](C(=O)O)C[C@H]3C2)cc1 | > 100 | > 100 | 10.2 | – | > 100 | > 100
NS(=O)(=O)c1cccc2c1c([N+](=O)[O-])cc1nc(O)c(O)nc12 [NBQX] | 0.6 | – | 6.12 | – | – | 26.6
O=C(O)[C@@H]1C[C@H]2C[C@@H](CCc3nn[nH]n3)CC[C@H]2CN1 [TEZAMPANEL ANHYDROUS] | > 100 | – | 2.1 | 4.16 | > 100 | 16.2
